Experimental data reported in paper PMC4444337 (PLoS ONE, 2015).
“And” between values parts separate entries of the source, which are not always exact repeats. Equal values may be shown once.

Assays:
[1] = Safety analysis: clinical symptoms, blood counts, serum chemistry; format: in vivo, African green monkeys; settings: compound treated vs vehicle treated groups
Method: The animals were monitored for clinical symptoms such as body temperature changes indicating a fever, signs of a cold, runny nose, sneezing, loss of appetite, and body weight. Blood counts and serum chemistry were assessed every second day. The safety findings were compared between the vehicle groups and the compound groups, to identify possible compound related adverse events.

RSV [2] = system: RSV; parameters: method as in PMID 21148224; settings: slow single bolus injection; cited from earlier work
RSV subgroup A strain A2 [3] = test: Lung histopathology (inflammation) in RSV-infected animals; format: in vivo, African green monkeys
Method: Tissues (administration site, heart, liver, lung, pancreas, skeletal muscle and trachea) were fixed in 10% phosphate-buffered formalin, paraffin-embedded, sectioned at 5 μm, stained with hematoxylin-eosin (H&E) and evaluated microscopically. For the lung, histological examination was performed on the right lung only, the left lung lobe was sampled for bioanalytical purposes. At tissue trimming, representative cross sections were taken from the cranial, mid and caudal lung lobe in all animals including the central part (with large bronchus) and the peripheral part. Three lung sections per animal (cranial, mid and caudal lobe) with two samples each (central and peripheral) were evaluated for each animal. To facilitate comparison between groups, a general overall score for inflammation was given for each lung section. Mean inflammatory scores were determined for each animal (mean of 3 lung lobes) and per dose group (S2 Fig).
The necropsy was performed at day 13 for Study 1 and at Day 15 for Study 2. Before necropsy, a sample for complete blood count and plasma sample was taken. Euthanasia procedures adhered to the current Report of the American Veterinary Medical Association Panel on Euthanasia. The anesthesia was performed with a combination of ketamine hydrochloride (7–15 mg/kg) and either acetylpromazine maleate (acepromazine) (0.55 mg/kg) or xylanin (Rompun) (0.6 mg/kg) followed by exsanguinations via the femoral vein. The blood taken was recorded. Thereafter, an injection of 390 mg/kg sodium pentobarbital intravenously was given. Death was defined as the cessation of respiration and of heartbeat. The necropsy was performed according to BIOQUAL SOPs and a board-certified veterinary pathologist from the Charles River Laboratories, Pathology Associates Division (PAI) was present at necropsy.

RSV subgroup A strain A2 [4] = test: RSV viral load (qRT-PCR, RSV-A F gene) in BALF/throat after RSV A2 challenge; format: in vivo, African green monkeys; settings: for Peak log VL (Median) in BALF: qRT-PCR
Method: In Study 1 all animals were followed until day 13 post-inoculation, when the necropsy took place.
In Study 2 all animals were followed until day 15 post-inoculation, when the necropsy took place.
Bronchoalveolar lavage fluid (BALF), nasal and throat swabs and blood samples were collected every 2 days from day 1 postinfection up to day 11 (study 1) and day 13 (study 2). For BALF collection, monkeys were sedated with […] (0.02–0.05 mg/kg) administered intramuscularly to allow passage of sterile laryngoscope and endotracheal tube. BAL was performed by laryngoscopy by inserting a shortened Kendall Sovereign feeding tube and urethral catheter through the endotracheal tube and approximately 10 mL of phosphate buffer saline (10 mL, pH 7.4) was instilled and gently suctioned back into the syringe promptly to recover approximately 5–7 mL of BAL in the syringe. Later, the adjustment of the dilution was done based on urea and protein concentration. White blood cell (WBC) count from BALF was analyzed using automated blood analysis instrumentation (Antech Diagnostics, Lake Success, NY, USA).
All animals were challenged with 1.5mL of 1 × 10^4 pfu/mL RSV subgroup A—strain A2 virus intranasally (i.n.) and intratracheally (i.t.) on day 0. […] The virus was thawed at room temperature and immediately put on ice.
For each inoculation, 1.5 mL were aspirated with a 3 mL syringe. After being anesthetized with 10 mg/mL ketamine, the animals were placed in dorsal recumbency. 0.25 mL of the virus was instilled drop-by-drop into each nostril and allowed to absorb for 20 sec. Once the absorption was complete, a Kendall Sovereign Feeding Tube and Urethral Catheter, Size 5 Fr, was trimmed about one inch on each side and inserted intratracheally using a laryngoscope. Once in place, 1mL of virus was instilled and flushed into the trachea with 7 mL of air.
RNA was extracted using a previously described protocol.
RSV was quantified using one-Step RT-PCR Master Mix reagents (Applied Bio systems, USA). Amplification and detection were performed in a ABI PRISM 7700 Sequence Detection System (Applied Biosystems, USA) under the following conditions: an initial reverse transcription at 48°C for 30 minutes, followed by PCR activation at 95°C for 10minutes and 45 cycles of amplification (15 sec at 95°C and 1minutes at 60°C).
The IEC-B assay was run as control. The viral load (VL) was expressed as RSV A-F copy numbers and transformed in Δ log10 values. The limit of detection was 10 copies of RSV F gene. The antiviral effect was calculated as differences between peak VL and area under the curve (AUC) VL based on Δ log10 RSV from different groups.

RSV [5] = settings: cited from earlier work
IL8 = IL8 in BALF (Luminex) after RSV challenge; format: in vivo, African green monkeys; settings: both studies
Method: The following monkey-specific cytokines were determined in BALF using a Luminex bead analysis according to the manufacturer's protocol: Interleukins (IL)-1b, IL-2, IL-4, IL-5, IL-6, IL-8, IL-10, Interferons (IFN)γ, IFNα, Tumor necrosis factor (TNF)α, Regulated on Activation, Normal T Cell Expressed and Secreted (RANTES), and Macrophage inflammatory protein (MIP)-1α. The non-human primate Luminex beads for IFNγ, IFNα, and IL-10 were provided by Texas Biomedical Research Institute (Texas, USA). The beads for the remaining cytokines were obtained from Millipore (Billerica, MA, USA). The samples for cytokine determination were run in duplicates. Human cytokine standards were used for standard curves and for determination of the lower limit of detection for individual cytokines. The results were read using a Luminex 100 System (Texas, USA).

RSV [6] = system: RSV; parameters: method as in PMID 21148224, PMID 17722899; settings: single administration, cited from earlier work
RSV-A virus = settings: read-out: EC50 on Hep2 cells, for RSV-A virus; cited from earlier work
RSV [7] = system: RSV; parameters: method as in PMID 19707346, PMID 9359721; settings: cotton rat model; cited from earlier work
RSV [8] = system: RSV; parameters: method as in PMID 19707346, PMID 9359721; settings: pediatric patients; cited from earlier work

Cc1ccc(CCCO)c(NCc2ccc3nc(NCCCN4CCOCC4)n(Cc4nc(C)ccc4O)c3c2)c1 [TMC353121]
Drug related adverse events (clinical symptoms, blood counts, serum chemistry) [1]: no drug related adverse events were observed
Antiviral activity in rodent models of RSV infection (RSV [2]): significant antiviral activity
Lung histopathology: improvement (RSV subgroup A strain A2 [3]; Study 1, Tx50 and Px50 groups): No improvement on lung histopathology
Lung histopathology: inflammatory changes (RSV subgroup A strain A2 [3]; Study 2, Px5 group (as vehicle control), slight to marked degree): very pronounced (inflammatory) changes
Lung histopathology: inflammatory changes (RSV subgroup A strain A2 [3]; Study 2, Px500 group, minimal to occasionally slight degree): much less pronounced changes
Plasma exposure at which complete inhibition of RSV shedding was observed (RSV subgroup A strain A2 [4]; Px500 arm): 0.39 µg/mL
Timing of peak viral shedding (RSV subgroup A strain A2 [4]; Study 1, Px50, 3 out of 5 animals): delayed peak viral shedding from day 7 to day 9
Peak log VL (Median) in BALF (RSV subgroup A strain A2 [4]; Study 1, Px50, vehicle Vh1 8.15): 6.88 log10
Δ log (Median): reduction in peak VL vs vehicle treated group, BALF (RSV subgroup A strain A2 [4]; Study 1, Px50 vs Vh1): -1.06 log10
Decrease in peak VL in BALF compared with the control group (RSV subgroup A strain A2 [4]; Study 1, Tx50): 1.15 log10
Peak log VL (Median) in BALF (RSV subgroup A strain A2 [4]; Study 1, Tx50, vehicle Vh1 8.15): 7 log10 and 7.00 log10
Δ log (Median): reduction in peak VL vs vehicle treated group, BALF (RSV subgroup A strain A2 [4]; Study 1, Tx50 vs Vh1): -1.1 log10
Peak log VL (Median) in BALF (RSV subgroup A strain A2 [4]; Study 2, Px5, vehicle Vh2 5.17): 5.23 log10
Δ log (Median): reduction in peak VL vs vehicle treated group, BALF (RSV subgroup A strain A2 [4]; Study 2, Px5 vs Vh2): 0 log10
Viral replication during the entire study (RSV subgroup A strain A2 [4]; Study 2, Px500, except one animal with a viral blip at day 10): complete inhibition of viral replication
Peak log VL (Median) in BALF (RSV subgroup A strain A2 [4]; Study 2, Px500, vehicle Vh2 5.17): 0 log10
VL in BAL 24h after the drug infusion was stopped (RSV subgroup A strain A2 [4]; Study 2, one Px500 animal, day 10, below limit of detection at day 9 in presence of drug): 2 log
Antiviral activity across dose groups (RSV subgroup A strain A2 [4]; from 1log10 reduction of peak viral load to complete inhibition of RSV replication): dose-dependent antiviral activity
Delay in peak viral shedding (RSV subgroup A strain A2 [4]; prophylactic administrations (Px50, Px5)): 2 days
Peak VL reduction (RSV subgroup A strain A2 [4]; therapeutic (+1day postchallenge) or prophylactic administration at exposure levels 3- to 5-fold above the EC50c): 1 log10
pEC50 (anti-RSV activity) (RSV [5]): 9.9
IL8 production in BALF, control vs treated animals (IL8): no significant reduction in IL8 production
Antiviral effect in treated compared with untreated groups (RSV [6]; mice): 0.5–1 log
Lung histopathology in mice (RSV [6]): improved lung histopathology

NC(=O)c1ncn([C@@H]2O[C@H](CO)[C@@H](O)[C@H]2O)n1 [ribavirin]
EC50 (RSV-A virus): 30 µM

palivizumab: humanized monoclonal antibody indicated for RSV prophylaxis in high-risk children
Exposure level to achieve complete inhibition of the RSV shedding (RSV [7]): 40 µg/mL
Exposure levels required to achieve 50% prophylactic effectiveness (RSV [8]): 37 to 72 µg/mL
